These results are taken from patent US20240115556A1, “A JMJD6 TARGETING AGENT FOR TREATING PROSTATE CANCER” (Cancer Research Technology Limited, priority 2020, published 2024).

One data set addresses T1, JMJD6 (1-362) (Homo sapiens, UniProt Q6NYC1).
T1 construct: by JMJD6 (1-362, prepared as reported); made in house
The data set is described as follows: LC-MS assay for JMJD6 inhibition (hydroxylation of LUC7L2 peptide substrate). The data set is classed as biochemical. More on the design: dose or concentration left out as unconfirmed. As to conditions: 8-point 3-fold serial dilution of 2,4-PDCA, 2 hours at 37° C. From the text: Liquid Chromatography Mass Spectrometry (LC-MS) assays for JMJD6 inhibition by 2,4-PDCA Hydroxylation of a 12-mer peptide substrate (NPKRSRSREHRR, prepared with a C-terminal amide) of the LUC7L2 pre-mRNA splicing factor by JMJD6 (1-362, prepared as reported) was monitored by liquid chromatography mass spectrometry (LC-MS) using an Agilent 1290 infinity II LC system equipped with an Agilent 1290 infinity binary pump and coupled to an Agilent 6550 Accurate Mass Quadrupole Time of Flight (Q-TOF) mass spectrometer. Note this construct has hydroxylation but not demethylation activity. All JMJD61-362 enzyme reactions were performed in 50 mM Tris.Cl pH 7.5 (prepared fresh each day) at 37° C. […] Peptide ionization was monitored in the positive ion electrospray ionisation (ESI) mode with a drying gas temperature of 280° C., a drying gas flow rate of 13 L/minute, nebulizer gas pressure of 40 PSI, sheath gas temperature of 350° C., sheath gas flow rate of 12 L/min and a nozzle voltage of 1000V. […] The % conversion of the peptide substrate to the +16 hydroxylated peptide was calculated using the equation: % conversion=100×hydroxylated/(hydroxylated+non-hydroxylated peptide). The IC50 for 2,4-PDCA was determined from non-linear regression curve fitting using GraphPad prism 6.0.

The conditions of data set [1]: at least in some cell types; cited from earlier work.
For a further data set, the system named is AR-V7 in 22Rv1 PC cells. The data set can be described thus: AR-V7 protein (WB) and mRNA (qPCR) levels in 22Rv1 PC cells. As to conditions: 2,4-PDCA for 48 hours. In kind it is cell-based. Here is the method:
(§1) All cell lines were purchased from LGC Standards/ATCC unless otherwise specified and grown in recommended media at 37° C. in 5% CO2. Short tandem repeat profiling was performed using the Cell Authentication Service by Eurofins Medigenomix to ensure the quality and integrity of the cell lines used. Cells lines were tested for mycoplasma after thawing, then regularly every 6-8 weeks during culture using the Venor®GeM Advance Mycoplasma Detection Kit (Minerva Biolabs). Early passages were thawed every 3-months (after approximately 15-20 passages). Small interfering RNA (siRNA): All siRNAs were ONTARGETplus pools (Dharmacon; GE heathcare), and used in combination with 0.4% RNAiMax transfection reagent (ThermoFisher Scientific) as per manufacturer's instructions. siRNA experiments were performed at 50 nM, unless otherwise specified, for 72-hours. […]
(§2) 0.45 μm pore size (Millipore). […] Chemiluminescence was then detected using the Chemidoc Touch imaging system (BioRad). Quantitative Reverse Transcription Polymerase Chain Reaction (qRT-PCR)
(§3) The RNeasy Plus Mini kit (Qiagen) was used to extract cellular RNA as per manufacturer's instructions. […] The fold change in mRNA expression levels was calculated by the comparative Ct method, using the formula 2-(-(ΔΔCt).
In general terms: In qPCR the cycle at which signal appears reflects the starting amount.

Data set [2] deals with JMJD6 protein in LNCaP95 cells. The data set is described as follows: WB of JMJD6 protein in LNCaP95 cells treated with I-BET151. The data set is classed as cell-based. As to conditions: I-BET151 for 48 hours. As for the experimental part:
Subsequent to cell lysis with RIPA buffer (Pierce) supplemented with cOmplete™ EDTA-free Protease Inhibitor Cocktail (Roche), protein extracts (20 μg) were separated by electrophoresis on 4-12% NuPAGE® Bis-Tris gel plates (Invitrogen) prior to transfer onto Immobilon-P™ PVDF membranes of 0.45 μm pore size (Millipore). Membranes were then incubated sequentially with primary and then secondary antibody in 5% milk and tris-buffered saline (TBS) and Tween®20 (Sigma Aldrich). Chemiluminescence was then detected using the Chemidoc Touch imaging system (BioRad). Quantitative Reverse Transcription Polymerase Chain Reaction (qRT-PCR)

The subject of data set [3] is AR-V7 in LNCaP95 PC cells. The data set is described as follows: AR-V7 protein (WB) and mRNA (qPCR) levels in LNCaP95 PC cells. The following applies: I-BET151 for 48 hours. The data set is classed as cell-based. As for the experimental part:
as §1, §2, §3

In a further data set the test system is VCaP PC cells. The data set is described as follows: CellTiter-Glo Luminescent Cell Viability Assay, VCaP. The data set is classed as cell-based. The following applies: siRNA 25 nM; Enzalutamide; after 5-days; vs control siRNA + DMSO 0.1%. As for the experimental part:
Cells were plated in 48-well tissue culture plates and treated as indicated the following day, then grown for 6-days or until 80-90% confluence. To quantify growth of LNCaP, LNCaP95, 22Rv1 and PNT2 cell lines, cells were fixed with 10% (w/v) aqueous trichloroacetic acid and incubated at 4° C. for 30-minutes prior to washing and air-drying. Subsequently cells were stained with sulforhodamine B (SRB) for 30-minutes prior to excess dye removal with 1% (v/v) aqueous acetic acid and further air-drying. Following this, protein-bound dye was dissolved in 10 mM Tris base solution, transferred to a 96-wellplate, and optical density determined at 510 nm using the Synergy HT microplate reader (BioTek). VCaP cell growth assays were analyzed using CellTiter-Glo® Luminescent Cell Viability Assay (Promega) as per manufacturer instructions, and luminescence quantified using the Synergy HT microplate reader (BioTek).
(In general: ATP-based viability assays read luminescence as a measure of living cells.)

The next data set relates to AR-V7 in VCaP PC cells. The data set can be described thus: AR-V7 protein (WB) and mRNA (qPCR) levels in VCaP PC cells. As to conditions: 72 hour, siRNA 25 nM, Enzalutamide 10 µM. The data set is classed as cell-based. As for the experimental part:
as §1, §2, §3

The test system of data set [4] is 12-mer peptide substrate of the LUC7L2 pre-mRNA splicing factor.

As to `O=C(O)c1ccnc(C(=O)O)c1` [2,4-PDCA, pyridine-2,4-dicarboxylic acid], the “isolated JMJD6-mediated lysyl-5-hydroxylation of LUC7-Like (LUC7L)” value on JMJD6 (1-362) is recorded as “dose-dependent reduction”. In data set [1], the permeability result was “low”. Besides, in the data set on AR-V7 in 22Rv1 PC cells, the AR-V7 protein levels entry was “dose-dependent reduction”.

As to `COc1cc2c(cc1-c1c(C)noc1C)ncc1[nH]c(=O)n([C@H](C)c3ccccn3)c12` [I-BET151], the JMJD6 protein expression entry in data set [2] is “dose-dependent reduction”. In addition, the AR-V7 protein expression result in data set [3] was “dose-dependent reduction”.

Consider `CNC(=O)c1ccc(N2C(=S)N(c3ccc(C#N)c(C(F)(F)F)c3)C(=O)C2(C)C)cc1F` [enzalutamide], for which, in the data set with VCaP PC cells, the “VCaP PC cell viability” value is on record as “reduced”. Besides, the “AR-V7 protein (WB) levels” value in the data set on AR-V7 in VCaP PC cells is recorded as “increase significantly”.

On to JMJD6 (1-362), for which the “lysyl-5-hydroxylation of the peptide substrate (LC-MS, % conversion to the +16 hydroxylated peptide)” value in data set [4] is on record as 2,4-PDCA caused dose-dependent reduction in isolated JMJD6-mediated lysyl-5-hydroxylation of the known downstream target LUC7-Like (LUC7L).
